Values of other authors in patent US9662315B2, “Ameliorating drug-induced elevations in blood pressure by adjunctive use of antihypertensive drugs” (Kitov Pharmaceuticals Ltd., priority 2008, dated 2017).

Settings: per FDA approved drug labeling; rofecoxib compared with placebo control patients

SMILES: Cc1ccc(-c2cc(C(F)(F)F)nn2-c2ccc(S(N)(=O)=O)cc2)cc1 [celecoxib]
- high blood pressure / hypertension rate in treated patients: increased rate of hypertension

SMILES: CS(=O)(=O)c1ccc(C2=C(c3ccccc3)C(=O)OC2)cc1 [rofecoxib]
- high blood pressure / hypertension rate in treated patients: occurring more frequently
